Assay results: paper PMC7570966 (Molecules, 2020)
Like-named read-outs stand apart in the source and are kept apart here.

Key:
[1] = target: T1, acetylcholinesterase (AChE) (Electrophorus electricus, UniProt O42275); experiment: biochemical; conditions: Ellman's method, pH 8, triplicate
T1 construct: purchased Sigma–Aldrich (St. Louis, MO, USA)
Procedure: AChE inhibitory activities of the synthesized flavone derivatives were determined by Ellman’s method [45]. […] The assay was performed as described earlier [46] in 96-well microtiter plates using the EMR-500 ELISA system (Labomed, Los Angeles, CA, USA). Each well of the plate contained a mixture of sodium phosphate buffer pH 8, sample (studied compounds or reference), acetylcholinesterase, ATCI, and 5,5′-dithio-bisnitrobenzoic acid (DTNB). The absorbance was recorded at 405 nm. All samples were assayed in triplicate.

[2] = target: T2, β-secretase (BACE-1) (Homo sapiens, UniProt P56817); experiment: biochemical
T2 construct: purchased Sigma–Aldrich
Source text: A fluorescence β-Secretase (BACE-1) Activity Detection Kit was purchased from Sigma–Aldrich and used to determine the effect of the synthesized flavone derivatives on β-secretase activity. […] The enzyme solution was reacted with the substrate (7-methoxycumarin-4-acetyl-(Asn670, Lue671)-amyloid β/A4 precursor protein 770 fragment 667–676-(2,4-dinitrophenyl))Lys-Arg-Arg amide trifluoroacetate salt and sulfated polysaccharide samples in a fluorescence assay buffer in different wells. Baseline readings were measure immediately on an F-7000 fluorescence spectrophotometer (Hitachi, Tokyo, Japan; excitation: 320 nm; emission: 405 nm) and repeated after 2 h incubation at 37 °C.

[3] = fluorescence kit, 2 h incubation at 37 °C, read-out: BACE-1 IC50
[4] = observed, -logIC50, read-out: BACE-1 Obs. pIC50 (converted)

T2 sequence (P56817 46-501): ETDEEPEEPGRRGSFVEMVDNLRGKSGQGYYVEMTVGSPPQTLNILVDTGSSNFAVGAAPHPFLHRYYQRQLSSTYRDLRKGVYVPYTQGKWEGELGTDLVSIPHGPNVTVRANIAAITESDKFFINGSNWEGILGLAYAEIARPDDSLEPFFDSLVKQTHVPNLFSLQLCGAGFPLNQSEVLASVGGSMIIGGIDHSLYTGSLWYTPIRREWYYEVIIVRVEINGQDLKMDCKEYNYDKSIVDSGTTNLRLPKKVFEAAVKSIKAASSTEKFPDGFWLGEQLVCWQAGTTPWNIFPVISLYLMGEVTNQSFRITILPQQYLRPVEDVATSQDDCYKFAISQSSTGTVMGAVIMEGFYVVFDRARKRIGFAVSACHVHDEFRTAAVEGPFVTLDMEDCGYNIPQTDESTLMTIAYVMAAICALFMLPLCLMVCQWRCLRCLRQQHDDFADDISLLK
T1 sequence (O42275 24-633): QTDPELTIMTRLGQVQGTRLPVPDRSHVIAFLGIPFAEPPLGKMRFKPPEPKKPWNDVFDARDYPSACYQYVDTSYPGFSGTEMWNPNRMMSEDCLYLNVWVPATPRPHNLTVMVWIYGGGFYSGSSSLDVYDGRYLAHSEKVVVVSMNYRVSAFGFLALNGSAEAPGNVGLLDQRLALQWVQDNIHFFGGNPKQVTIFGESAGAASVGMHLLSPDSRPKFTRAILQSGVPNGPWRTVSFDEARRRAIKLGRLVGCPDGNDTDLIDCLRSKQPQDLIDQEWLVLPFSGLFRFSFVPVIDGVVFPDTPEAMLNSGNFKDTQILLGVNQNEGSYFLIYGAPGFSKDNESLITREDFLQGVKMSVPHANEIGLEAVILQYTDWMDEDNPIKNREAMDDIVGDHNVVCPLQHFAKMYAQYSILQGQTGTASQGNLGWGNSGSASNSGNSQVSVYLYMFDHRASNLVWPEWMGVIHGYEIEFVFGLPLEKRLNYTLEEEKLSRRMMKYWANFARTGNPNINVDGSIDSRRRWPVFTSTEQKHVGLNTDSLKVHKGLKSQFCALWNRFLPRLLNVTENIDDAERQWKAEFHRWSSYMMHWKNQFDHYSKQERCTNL

How did the IC50 [1] turn out when `CCOc1cc(OCC)c2c(=O)cc(-c3ccc(OC)c(OCC)c3)oc2c1` [Compound D6, 3′,5,7-Triethoxy-4′-methoxyflavone] was run?
Its IC50 is 75.9 µM.

And the IC50 [2, 3]?
The IC50 was 1.58 µM.

What about the IC50 [2, 4] of the same compound?
Its IC50 is 1.58 µM.

For `C=CCOc1cc(O)c2c(=O)cc(-c3ccc(OC)c(OCC=C)c3)oc2c1` [Compound D4, 3’,7-Diallyloxy-5-hydroxy-4’-methoxyflavone], which IC50 [1] is on record?
Its IC50 is 151 µM.

What about the IC50 [2, 3] of the same compound?
Its IC50 is 3.6 µM.

What about the IC50 [2, 4] of the same compound?
Its IC50 is 3.63 µM.

With `COc1cc(OC)c2c(=O)cc(-c3ccc(OC)c(OC)c3)oc2c1` [Compound D5, 3’,4’,5,7-Tetramethoxyflavone] as the compound, how does the IC50 [1] read?
The IC50 was 73.8 µM.

What about the IC50 ([2]; BACE-1 IC50, fluorescence kit, 2 h incubation at 37 °C) of the same compound?
Its IC50 is 1.66 µM.

What about the IC50 ([2]; BACE-1 Obs. pIC50, observed, -logIC50) of the same compound?
Its IC50 is 1.66 µM.

With `COc1cc2oc(-c3ccccc3)cc(=O)c2c(O)c1OC` [Compound B2, 5-Hydroxy-6,7-dimethoxyflavone] as the compound, how does the IC50 [1] read?
Its IC50 is 25.5 µM.

And the IC50 [2, 3]?
Its IC50 is 43.6 µM.

And the IC50 [2, 4]?
The IC50 was 43.7 µM.

`COc1ccc(-c2cc(=O)c3c(O)cc(OC(=O)c4ccccc4)cc3o2)cc1OC(=O)c1ccccc1` [Compound D7, 3’,7-Dibenzoyloxy-5-hydroxy-4’-methoxyflavone] was tested. Which IC50 [1] did it give?
The IC50 was 340 µM.

And the IC50 [2, 3]?
The IC50 was 2.86 µM.

What about the IC50 [2, 4] of the same compound?
Its IC50 is 2.88 µM.

For `CCC(=O)Oc1cc2oc(-c3ccccc3)cc(=O)c2c(OC(=O)CC)c1OC(=O)CC` [Compound B8, 5,6,7-Tripropionoxyflavone], which IC50 [1] is on record?
The IC50 was 66.2 µM.

And the IC50 [2, 3]?
Its IC50 is 22.4 µM.

And the IC50 [2, 4]?
Its IC50 is 22.4 µM.

`C=CCOc1cc2oc(-c3ccccc3)cc(=O)c2c(O)c1OCC=C` [Compound B4, 6,7-Diallyloxy-5-hydroxyflavone] was tested. Which IC50 [1] did it give?
Its IC50 is 51.8 µM.

What about the IC50 [2, 3] of the same compound?
The IC50 was 70.8 µM.

And the IC50 [2, 4]?
The IC50 was 70.8 µM.

With `O=c1cc(-c2ccccc2)oc2cc(O)c(O)c(O)c12` [Compound B1, Baicalein] as the compound, how does the IC50 [1] read?
The IC50 was 37.1 µM.

What does the source list for `CCOc1cc(O)c2c(=O)cc(-c3ccc(OC)c(OCC)c3)oc2c1` [Compound D3, 3’,7-Diethoxy-5-hydroxy-4’-methoxyflavone]?
IC50 [1]: 129 µM; IC50 [2, 3]: 3.16 µM; IC50 [2, 4]: 3.16 µM

How did the IC50 [1] turn out when `CC(=O)Oc1cc2oc(-c3ccccc3)cc(=O)c2c(OC(C)=O)c1OC(C)=O` [Compound B7, 5,6,7-Triacetoxyflavone] was run?
Its IC50 is 51.3 µM.

And the IC50 [2, 3]?
Its IC50 is 31.6 µM.

What about the IC50 [2, 4] of the same compound?
The IC50 was 31.6 µM.

Which results are given for `COc1cc(O)c2c(=O)cc(-c3ccc(OC)c(OC)c3)oc2c1` [Compound D2, 5-Hydroxy-3’,4’,7-trimethoxyflavone]?
IC50 [1]: 87.1 µM; IC50 [2, 3]: 2.14 µM; IC50 [2, 4]: 2.14 µM

For `CCOc1cc2oc(-c3ccccc3)cc(=O)c2c(O)c1OCC` [Compound B3, 6,7-Diethoxy-5-hydroxyflavone], which IC50 [1] is on record?
The IC50 was 30 µM.

And the IC50 [2, 3]?
Its IC50 is 3.98 µM.

And the IC50 [2, 4]?
Its IC50 is 3.98 µM.

Which results are given for `O=c1cc(-c2ccccc2)oc2cc(OCc3ccccc3)c(OCc3ccccc3)c(OCc3ccccc3)c12` [Compound B6, 5,6,7-Tribenzyloxyflavone]?
IC50 [1]: 80.3 µM; IC50 [2, 3]: 12.6 µM; IC50 [2, 4]: 12.6 µM

Which IC50 [1] does the source give for `C=CCOc1cc2oc(-c3ccccc3)cc(=O)c2c(OCC=C)c1OCC=C` [Compound B5, 5,6,7-Triallyloxyflavone] here?
Its IC50 is 191 µM.

And the IC50 [2, 3]?
Its IC50 is 17 µM.

What about the IC50 [2, 4] of the same compound?
The IC50 was 17 µM.
